Measured values: US20070105878A1, “Purine formulations and methods for managing disorders” (priority 2005, published 2007)

How the values were obtained:
Assay type in all cases: in vivo, mouse
CD1: ICR mice [1] = assay: forced swim test in mice
Description: FIG. 2 illustrates forced swim test in mice. Mice are administered illustrative compounds of the invention and subjected to the forced swim test for 6 minutes with activity timed for the duration of the test. Compound 112 was administered 30 minutes prior to the swim test.
The forced swim test is another commonly used animal model for detecting anti-depressant activity of pharmacological agents. This test is complimentary to the tail suspension test. When mice are required to swim in a container with no route of escape they develop a behavioral despair that is characterized by immobility except for small movements needed to remain afloat. This immobility is thought to reflect a state of lowered ‘mood’ (i.e., depression) in which animals have given up hope of escaping. Forced swim test immobility is attenuated by a variety of clinically active antidepressants.
(§1) In both assays, antidepressants increase the amount of struggle and the latency until the first extended immobility. These assays are considered to be good predictors for antidepressant activity and identifies nearly all antidepressant classes including tricyclics, SSRIs, 5-HT1A receptor agonists, and MAOIs.
(§2) CD1: ICR mice from Harlan 12 weeks of age. Animals were dosed with Compound 112, 30 minutes prior to tail suspension analysis or forced swim test.

mice = assay: acetylcholine writhing assay
Description: Experiments were conducted to collect data in an animal model that reflects the gastrointestinal pain component of IBS. In this model, mice were injected intraperitoneally with acetylcholine. Acetylcholine evokes contractions of smooth muscle in the gastrointestinal tract. These contractions are painful and are expressed as a writhing response. Two measurements are made in this model: 1) time to onset of writhing and 2) total writhing time. In these studies, mice were treated with Compound 112 prior to acetylcholine administration and time to onset and total time writhing were measured.
Compound 112 was tested for its ability to attenuate acetylcholine induce writhing. The anti-writhing response was compared to propentofylline, pentoxyfylline and theophylline. All drugs were administered subcutaneously 30 minutes prior to acetylcholine administration. Acetylcholine was administered at a dose of 3 mg/kg (IP). Acetylcholine writhing was measured for a 10 minute time period. Time to onset and total writhing time were recorded.
Compound 112 was administered via both routes 30 minutes prior to acetylcholine administration. Acetylcholine was administered at a dose of 3 mg/kg (IP). Acetylcholine writhing was measured for a 10 minute time period. Time to onset and total writhing time were recorded.

CD1: ICR mice [2] = assay: tail suspension test in mice
Text: There are a number of animal models of depression that are used to identify pharmacological agents that have clinical potential as anti-depressant agents. One such animal model is the mouse tail-suspension model. Mice, suspended by the tail, will rapidly develop behavioral despair that is characterized by immobility. This immobility is thought to reflect a state of lowered ‘mood’ (i.e., depression) in which animals have given up hope of escaping.
as §1, §2
For the tail suspension test, a clip was attached to each mouse tail. Mice (2 per run) were suspended from the pressure transducer in an isolated plexiglass tail suspension chamber. Thirty seconds after suspending the mouse from the transducer, struggle activity was monitored via the transducer that was connected to a computer. The following parameters were measured: 1) number of despair events lasting 5 seconds or longer; 2) Total time in despair; and average time in despair. Data were averaged and analyzed by ANOVA followed by a post-hoc Tukey's test with a p value of less then […] indicating a statistical difference.

Male CD1 mice [3] = assay: micturition model of overactive bladder; settings: 1 hr period after furesomide
Text: Micturition is a model of overactive bladder and is achieved through complex neurological mechanisms involving somatic, autonomic and central components. Disorders of micturition can roughly be classified as disturbances of bladder storage or of emptying. Failure to store urine may lead to various forms of incontinence, the main forms of which are urge and stress incontinence. Antimuscarinics are the mainstay of pharmacological treatment of the overactive bladder syndrome, which is characterized by urgency, frequency, and urge incontinence. The present study describes the activity of Compound 112 in an animal model of incontinence.
Male CD1 mice (Harlan Sprague Dawley, Indianapolis, Ind.) 12 weeks of age were used for these studies. This study was multiplexed with the pulmonary inflammation study. Animals were housed five per cage, kept on a standard 12 hr light cycle. Sample size was 6 animals per group.
Mice were injected with Compound 112 or vehicle solution as described, and then injected with 1 ml of water (s.c). Furesomide (SigmaAldrich) was formulated at a concentration of 1 mg/ml in water and injected ip at a volume of 10 ml/kg within 5 minutes after drug and water administration. […] Data were averaged and analyzed by ANOVA followed by a post-hoc Tukey's test with a p value of […] indicating a statistical difference.

Male C57/B16 mice = assay: experimental autoimmune encephalomyelitis (EAE), animal model of multiple sclerosis, open-field analysis; settings: daily administration at 6 and 30 mg/kg
Text: Experimental autoimmune encephalomyelitis (EAE) is an animal model of multiple sclerosis. This model is produced by administering a myelin basic protein peptide (MBP) fragment that induces an autoimmune response directed to the myelin sheath surrounding motor neurons. Demyelination of neurons within the CNS leads to impaired locomotor function and mirrors symptoms of the human disease. The disease, and the model, appears in exacerbations and remissions and is characterized by loss of nerve conduction and chronic progression of disability. In this study, we assessed the progression of locomotor dysfunction in mice subjected to EAE and treated with an illustrative compound of the invention.
Male C57/B16 mice (Harlan Sprague Dawley, Indianapolis, Ind.) 8 weeks of age were used for these studies. […]
Open-field assessments were conducted on days 7, 14, 21 and 28. Mice were evaluated by activity in an open-field activity monitor (Med-Associates-OFA ENV-510). Mice were place in the activity monitor for 15 minutes and a variety of open-field behaviors were monitored including distance traveled, ambulatory time, rearing behavior, time in center of field and stereotypic behavior. Data were averaged and analyzed by ANOVA followed by a post-hoc Tukey's test with a p value of less then […] indicating a statistical difference.

Male CD1 mice [4] = assay: colonic propulsion assay (glass bead expulsion test); settings: for increase of expulsion time from controls: subcutaneous, 30 minutes prior to glass bead expulsion test
Text: The gastrointestinal transit model described in this report is a method for evaluating a test compounds ability to alter colonic propulsive motility. This model is designed to identify pharmacological agents that produce inhibitory effects on propulsive motor activity and is an excellent predictor of drugs that may be useful for the therapy of irritable bowel syndrome. This model can be modified to identify antagonists of constipative drugs or diarrhea producing drugs. In this study, Compound 112 was tested for its ability to affect colonic transport.
Male CD1 mice (Harlan) 12 weeks of age were used for this study. Mice were kept on a 12 hr light dark cycle and fed ad libitum.
Compound 112 was administered 30 minutes prior to the colonic propulsion study. After dosing, a 3 mm glass bead was inserted through the anus to a depth of 2 cm into the distal colon using a pre-measured plastic rod. […] A cutoff of 30 minutes was used. Data are expressed as the average ±SEM for each treatment. Data were averaged and analyzed by ANOVA followed by a post-hoc Tukey's test with a p value of less then […] indicating a statistical difference.
Compound 112 was compared to morphine, topfisopam, propentofylline, pentoxyfylline, and theophylline in the colonic propulsion assay. Drugs were administered subcutaneously at the indicated doses 30 minutes prior to the colonic propulsion assay.

[5] = subcutaneous, 30 minutes prior to acetylcholine 3 mg/kg IP

CCOCn1cnc2c1c(=O)n(CCCCC(C)(C)O)c(=O)n2C [Compound 112]
anti-depressant activity (CD1: ICR mice [1]; higher doses (≧30 mg/kg)): lost | antidepressant activity (CD1: ICR mice [1]; lower doses (6 and 10 mg/kg)): observed | potency, oral vs subcutaneous administration (mice; 30 minutes prior to acetylcholine 3 mg/kg IP): significantly more potent | activity on onset time (mice; SC, 30 mg/kg): produced activity | activity on onset time (mice; oral, 10 mg/kg): significant activity | activity on acetylcholine induced writhing (mice; [5]): had activity | overall potency vs theophylline, pentoxyfylline and propentofylline (mice; [5]): more potent | potency in attenuating writhing time vs propentofylline, pentoxyfylline and theophylline (mice; [5]): significantly more potent | potency in delaying onset of writhing vs propentofylline, pentoxyfylline and theophylline (mice; [5]): significantly more potent | number of despair events (CD1: ICR mice [2]; 6 mg/kg, dosed 30 minutes before test): reduced | despair time (CD1: ICR mice [2]; 6 and 30 mg/kg, dosed 30 minutes before test): significantly decreased | anti-depressant activity (CD1: ICR mice [2]; higher doses (≧30 mg/kg)): lost | antidepressant activity (CD1: ICR mice [2]; lower doses (6 and 10 mg/kg)): observed | number of urination events (Male CD1 mice [3]): significantly reduced | urinary volume (Male CD1 mice [3]): significantly reduced | development of locomotor dysfunction (Male C57/B16 mice): significantly attenuated | expulsion of a colonically inserted glass bead (Male CD1 mice [4]; 30 and 100 mg/kg, 30 minutes after administration): significantly slowed | extension of expulsion time (Male CD1 mice [4]; 30 and 100 mg/kg, vs vehicle): > 5 fold | increase of expulsion time from controls (Male CD1 mice [4]): 5 fold

CC(=O)CCCCn1c(=O)c2c(ncn2C)n(C)c1=O [pentoxyfylline, reference compound]
activity on acetylcholine induced writhing (mice; [5]): had activity

CCCn1cnc2c1c(=O)n(CCCCC(C)=O)c(=O)n2C [propentofylline, reference compound]
activity on acetylcholine induced writhing (mice; [5]): had activity

Cn1c(=O)c2[nH]cnc2n(C)c1=O [theophylline, reference compound]
activity on acetylcholine induced writhing (mice; [5]): had activity

CCC1C(C)=NN=C(c2ccc(OC)c(OC)c2)c2cc(OC)c(OC)cc21 (centres unmarked) [tofisopam, reference compound]
increase of expulsion time from controls (Male CD1 mice [4]): less than 3 fold
